The supplement of paper PMC10307832

What was measured:
Assay in all cases: relative viability (nuclei count vs DMSO), 5 days (fraction); higher = more cells survive
[1] = compound: CC1=CC=C(C=C1)C(=O)CN2C3=C(CCCC3)SC2=N [Pifithrin_alpha] + CC(=O)c1c(C)c2cnc(Nc3ccc(N4CCNCC4)cn3)nc2n(C2CCCC2)c1=O [Palbociclib] (partner 0.5 µM)
In short: (§1)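 Five library-drug doses in √10 steps were combined with a fixed anchor-drug dose, or a single drug was given alone, by pin tool to lung cancer cell lines in 1536-well plates the day after seeding. Nuclei were stained and counted after 5 days. Relative viability is the nuclei count in treated wells over that in vehicle wells, taken as the median of duplicate plates.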

[2] = compound: CC1=CC=C(C=C1)C(=O)CN2C3=C(CCCC3)SC2=N [Pifithrin_alpha] + Cc1nc(Nc2ncc(C(=O)Nc3c(C)cccc3Cl)s2)cc(N2CCN(CCO)CC2)n1 [Dasatinib] (partner 0.075 µM)
In short: as §1

Axitinib + OSI-027 = compound: CNC(=O)c1ccccc1Sc1ccc2c(/C=C/c3ccccn3)n[nH]c2c1 [Axitinib] + COc1cccc2cc(-c3nc([C@H]4CC[C@H](C(=O)O)CC4)n4ncnc(N)c34)[nH]c12 [OSI-027] (partner 0.5 µM)
In short: as §1

Axitinib + AZD7762 = compound: CNC(=O)c1ccccc1Sc1ccc2c(/C=C/c3ccccn3)n[nH]c2c1 [Axitinib] + NC(=O)Nc1cc(-c2cccc(F)c2)sc1C(=O)N[C@H]1CCCNC1 [AZD7762] (partner 0.2 µM)
In short: as §1

| Cell Line | relative viability ([1]; first compound 1 µM) | relative viability ([1]; first compound 3.162 µM) | relative viability ([1]; first compound 10 µM) | relative viability ([1]; first compound 31.62 µM) | relative viability ([1]; first compound 100 µM) | relative viability ([2]; first compound 1 µM) | relative viability ([2]; first compound 3.162 µM) | relative viability ([2]; first compound 10 µM) | relative viability ([2]; first compound 31.62 µM) | relative viability ([2]; first compound 100 µM) | relative viability (Axitinib + OSI-027; first compound 0.005 µM) | relative viability (Axitinib + OSI-027; first compound 0.01581 µM) | relative viability (Axitinib + OSI-027; first compound 0.05 µM) | relative viability (Axitinib + OSI-027; first compound 0.1581 µM) | relative viability (Axitinib + OSI-027; first compound 0.5 µM) | relative viability (Axitinib + AZD7762; first compound 0.005 µM) | relative viability (Axitinib + AZD7762; first compound 0.01581 µM) | relative viability (Axitinib + AZD7762; first compound 0.05 µM) | relative viability (Axitinib + AZD7762; first compound 0.1581 µM) | relative viability (Axitinib + AZD7762; first compound 0.5 µM) |
| --- | --- | --- | --- | --- | --- | --- | --- | --- | --- | --- | --- | --- | --- | --- | --- | --- | --- | --- | --- | --- |
| 201T | 0.349 | 0.319 | 0.344 | 0.286 | 0.376 | 0.47 | 0.337 | 0.431 | 0.392 | 0.399 | 0.735 | 0.675 | 0.502 | 0.706 | 0.679 | 0.626 | 0.56 | 0.593 | 0.539 | 0.59 |
| A-427 | 0.5 | 0.529 | 0.497 | 0.447 | 0.454 | 0.824 | 0.635 | 0.599 | 0.513 | 0.702 | 0.422 | 0.329 | 0.442 | 0.434 | 0.486 | 0.805 | 0.77 | 0.807 | 0.718 | 0.887 |
| ABC-1 |  | 0.839 | 0.831 | 0.462 | 0.53 | 0.413 | 0.439 | 0.435 | 0.398 | 0.453 | 0.597 | 0.436 | 0.482 | 0.456 | 0.448 |  | 0.725 | 0.896 | 0.822 | 0.461 |
| BEN | 0.487 | 0.488 | 0.456 | 0.444 | 0.472 | 0.217 | 0.36 | 0.373 | 0.343 | 0.299 | 0.3 | 0.287 | 0.3 | 0.286 | 0.342 | 0.633 | 0.622 | 0.694 | 0.68 | 0.618 |
| CAL-12T | 0.364 | 0.308 | 0.436 |  | 0.238 | 0.327 | 0.249 | 0.258 |  | 0.196 | 0.847 | 0.684 | 0.728 | 0.597 | 0.634 | 0.623 | 0.576 | 0.615 | 0.564 | 0.561 |
| COR-L23 | 0.287 | 0.26 | 0.281 |  | 0.267 | 0.567 | 0.458 | 0.386 |  | 0.38 | 0.88 | 0.775 | 0.804 | 0.75 | 1.19 |  |  |  |  |  |
| COR-L 105 | 0.382 | 0.42 | 0.412 | 0.357 | 0.406 | 0.315 | 0.292 | 0.323 | 0.243 | 0.323 | 0.762 | 0.509 | 0.681 | 0.722 | 0.725 |  |  |  |  |  |
| ChaGo-K-1 | 0.87 | 0.955 | 0.901 | 0.509 | 0.911 | 0.641 | 0.594 | 0.614 | 0.509 | 0.497 | 0.547 | 0.505 | 0.67 | 0.554 | 0.591 | 0.912 | 0.862 | 0.908 | 0.868 | 0.886 |
| EKVX | 0.387 | 0.33 | 0.321 | 0.257 | 0.276 |  | 0.461 | 0.352 | 0.404 | 0.384 | 0.708 | 0.708 | 0.746 | 0.737 | 0.69 | 0.782 | 0.617 | 0.883 | 0.636 | 0.644 |
| EMC-BAC-2 | 0.493 | 0.542 | 0.489 | 0.422 | 0.506 | 0.311 | 0.319 | 0.298 |  | 0.311 | 0.409 | 0.374 | 0.359 | 0.426 | 0.409 | 1.07 | 1.1 | 1.06 | 1.1 | 1.11 |
| EPLC-272H |  | 0.322 | 0.334 | 0.315 | 0.351 | 0.236 | 0.344 | 0.324 | 0.279 | 0.379 | 0.3 | 0.286 | 0.248 | 0.293 | 0.283 | 0.245 | 0.165 | 0.269 | 0.234 | 0.197 |
| H3255 | 0.292 | 0.304 | 0.298 | 0.296 | 0.304 | 0.29 | 0.344 | 0.308 | 0.32 | 0.274 | 0.651 | 0.512 | 0.612 | 0.599 | 0.544 | 0.841 | 0.734 | 0.891 | 0.915 | 0.879 |
| HARA | 0.219 | 0.266 | 0.26 | 0.265 | 0.226 |  | 0.256 | 0.257 |  | 0.268 | 0.445 | 0.414 | 0.666 | 0.49 | 0.802 | 0.315 | 0.447 | 0.369 | 0.348 | 0.313 |
| HCC-15 | 0.514 | 0.731 | 0.765 | 0.516 | 0.625 | 0.634 | 0.61 | 0.485 | 0.275 | 0.264 | 0.725 | 0.679 | 0.689 | 0.65 | 0.623 | 1.36 | 1.13 | 1.35 | 1.14 | 1.18 |
| HCC-44 | 0.825 | 0.922 | 0.867 | 0.81 | 0.812 |  |  |  |  |  | 0.451 | 0.439 | 0.404 | 0.605 | 0.614 | 1.07 | 1.04 | 1.01 | 0.992 | 1.03 |
| HCC-78 | 0.449 | 0.412 | 0.454 | 0.409 | 0.488 | 0.259 | 0.354 | 0.336 | 0.417 | 0.455 | 0.365 | 0.335 | 0.358 | 0.362 | 0.356 | 0.787 | 0.58 | 0.857 | 0.708 | 0.498 |
| HCC-366 | 0.33 | 0.289 | 0.28 |  | 0.258 | 0.501 | 0.506 | 0.426 |  | 0.537 | 0.979 | 0.895 | 1.09 | 1.02 | 0.939 | 0.307 | 0.206 | 0.377 | 0.337 | 0.405 |
| HCC-827 | 0.49 | 0.444 | 0.479 | 0.43 | 0.471 | 0.336 | 0.333 | 0.351 | 0.429 | 0.363 | 0.822 | 0.745 | 0.826 | 0.759 | 0.933 | 0.195 | 0.129 | 0.176 | 0.212 | 0.214 |
